Source: patent publication US9399016B2, “Materials and complexes for the delivery of biologically-active materials to cells” (UCL BUSINESS PLC, priority 2006, dated 2016)

Experiments:
[1] = Hydrolysis studies of PEG-acetal cleavable lipids; assay type: physicochemical; conditions: pH at which hydrolysis was observed; 37° C., pH range 3 to 7; TLC, confirmed by mass spectrometry
Experimental: Hydrolysis of the PEG-acetal lipids was investigated at 37° C. over a pH range of 3 to 7.
Acid hydrolysis of the compounds was monitored by TLC, and cleavage was then confirmed by mass spectrometry. An example of the TLC analysis method used for compound JBW389 is shown FIG. 4 with a control (the cleaved acetal product, the corresponding aldehyde) and the pH at which hydrolysis for all of the compounds prepared was observed is given in Table II.

[2] = test system: Neuro 2A, AJ3.1, bEND.3, 16HBE14o-, ΣCFTE29o- cells and primary PVSMCs; assay: In vitro transfection, luciferase reporter, statements covering several or all cell types studied; assay type: cell-based; conditions: for transfection efficiency, rank among PEG-acetal pH-sensitive lipids: all the cells, lipid/DOPE complexed to peptide 6 or E and pCI-Luc 2:4:1; for transfection efficiency of cleavable (RVRR) peptide compared with equivalent non-cleavable peptide control: Neuro 2A, bEND.3 and 16HBE14o- cells, stated for 'most' of the peptides, controls P1, P6, FMM12, PE, PY
Experimental: (§1) Cells were seeded into 96-well plates at 2.5×10^3 cells per well for bEND.3 cells and at 2×10^4 cells per well for all the other cells, then incubated overnight at 37° C. in complete growth medium. The following day, lipopolyplex (LPD) formulations were prepared essentially as described previously (Hart et al., 1998), by mixing the components in the following order: 50 μl of lipid (L) at 80 μg/ml in OptiMEM, 70 μl of peptide (P) at 110 μg/ml in OptiMEM and 50 μl of plasmid pCI-Luc (D) at 40 μg/ml in OptiMEM corresponding to a weight ratio of 2:4:1, respectively. All the complexes were mixed by pipetting briefly, kept for 1 h at room temperature and then diluted in OptiMEM to a final volume of 1.57 ml. Two hundred microliters of complexes corresponding at 0.25 μg of plasmid DNA were added to each culture well after removal of the complete growth medium. All the transfections were carried out in 6 wells each. A centrifugation (1500 rpm, during 5 minutes) could be performed to promote the complex sedimentation and cell contact. The cells were incubated with the complexes for 4 h at 37° C. before replacing with fresh media for 24 h, after which reporter gene expression was analysed by luciferase assay (Promega, Madison, Wis., USA). For bEND.3 cells, 5 mM sodium butyrate was added to the transfection medium and to the fresh media to achieve optimal expression levels.
(§2) Cells were washed once with PBS before the addition of 20 μl of 1× Reporter Lysis Buffer (Promega, Madison, Wis., USA) to the cells for 20 min at 4° C. before freezing at −80° C. for at least 30 min, followed by thawing at room temperature. Then the luciferase activity was measured during 10 seconds using the Luciferase Assay System (Promega, Madison, Wis., USA) and a Lucy-1 Luminometer (Anthos Ltd., Salzburg, Austria). The amount of protein present in each transfection lysate was determined with the Bio-Rad (Hercules, Calif., USA) protein assay reagent by the manufacturer's instructions, adding 20 μl from the luciferase test to 180 μl of the reagent diluted 1 in 5 and incubating at room temperature for 10 min before comparing the OD590 to a range of BSA standards. In vitro luciferase activity was expressed as Relative Light Units (RLU) per milligram of protein (RLU/mg).

ΣCFTE29o- cells = assay: In vitro transfection with LPD/LD complexes, luciferase reporter (pCI-Luc); assay type: cell-based, human; conditions: complexed to peptide E, p<0.05
Experimental: (§3) Cells were seeded into 96-well plates at 2.5×10^3 cells per well for bEND.3 cells and at 2×10^4 cells per well for all the other cells, then incubated overnight at 37° C. in complete growth medium. The following day, lipopolyplex (LPD) formulations were prepared essentially as described previously (Hart et al., 1998), by mixing the components in the following order: 50 μl of lipid (L) at 80 μg/ml in OptiMEM, 70 μl of peptide (P) at 110 μg/ml in OptiMEM and 50 μl of plasmid pCI-Luc (D) at 40 μg/ml in OptiMEM corresponding to a weight ratio of 2:4:1, respectively. […] The cells were incubated with the complexes for 4 h at 37° C. before replacing with fresh media for 24 h, after which reporter gene expression was analysed by luciferase assay (Promega, Madison, Wis., USA). […]
(§4) Cells were washed once with PBS before the addition of 20 μl of 1× Reporter Lysis Buffer (Promega, Madison, Wis., USA) to the cells for 20 min at 4° C. before freezing at −80° C. for at least 30 min, followed by thawing at room temperature. Then the luciferase activity was measured during 10 seconds using the Luciferase Assay System (Promega, Madison, Wis., USA) and a Lucy-1 Luminometer (Anthos Ltd., Salzburg, Austria). […] In vitro luciferase activity was expressed as Relative Light Units (RLU) per milligram of protein (RLU/mg).

16HBE14o- cells = assay: as above; assay type: cell-based, human; conditions: complexed to peptide E, p<0.05
Experimental: as §3, §4

Neuro 2A cells = assay: as above; assay type: cell-based, mouse
Experimental: as §1, with “For bEND.3 cells, 5 mM sodium butyrate was added to the transfection medium and to the fresh media to achieve optimal expression levels.” left out
as §2, with “In vitro luciferase activity was expressed as Relative Light Units (RLU) per milligram of protein (RLU/mg).” left out

[3] = test system: female A/J mice bearing a tumour (Neuro 2A); assay: In vivo transfection, i.v., luciferase expression in tumours and organs; parameters: species or system mouse; conditions: peptide complexed to lipid ME42/DOPE and pCI-Luc, 24 hours, p>0.05
Experimental: All animal procedures were approved and licensed by the Home Office and performed to the standards required by the UK Co-ordinating Committee on Cancer Research (UKCCCR) (Workman et al., British Journal of Cancer, 1998, 77, 1-10). Female A/J mice (Harlan Laboratories, U.K) of 8-12 weeks old were injected subcutaneously in the right posterior flank with 1.5×10^6 Neuro 2A cells. After 10±2 days, when tumors had reached approximately 8-12 mm in size, 100 μl of LPD complexes made in 5% glucose and containing 50 ug pCI-Luc or pAB 11 were injected into the tail vein. Experiments were carried out at least six times. Twenty-four hours after injection, mice were killed and tumours and organs were resected and stored at −80° C. Tissues were defrosted in ice, submersed in reporter gene assay lysis buffer (Roche, Germany), homogenized with an IKA homogenizer (IKA, Staufen, Germany) and centrifuged at 4600 rpm during 10 min at 4° C. The supernatant was got back and centrifuged at 13000 rpm during 10 min at 4° C. Luciferase activity in the tissue lysates was measured using a FLUOstar Optima (BMG Labtech, UK) during 30 seconds and was expressed as RLU per milligram of protein (RLU/mg). Two million RLU/30 sec correspond to 1 ng luciferase.

bEND.3 cells = assay: In vitro transfection with LPD/LD complexes, luciferase reporter (pCI-Luc); assay type: cell-based, mouse; conditions: complexed to peptide E, p<0.05
Experimental: as §1, with “For bEND.3 cells, 5 mM sodium butyrate was added to the transfection medium and to the fresh media to achieve optimal expression levels.” left out
as §2, with “In vitro luciferase activity was expressed as Relative Light Units (RLU) per milligram of protein (RLU/mg).” left out

[4] = test system: primary porcine vascular smooth muscle cells (PVSMCs); assay: as above; assay type: cell-based; conditions: complexed to peptide E, p<0.05
Experimental: as §3, §4

[5] = lipofectin:peptide:pCI-Luc 2:4:1

| Compound | Hydrolysis pH [1] | transfection efficiency, rank among PEG-acetal pH-sensitive lipids [2] | transfection efficiency of cleavable (RVRR) peptide compared with equivalent non-cleavable peptide control [2, 5] | further results |
| --- | --- | --- | --- | --- |
| CCCC/C=C\CCCCCCCCCCOCC(C[N+](C)(C)CCCCCC(OCCOCCO)OCCOCCO)OCCCCCCCCCC/C=C\CCCC (centres unmarked) [JBW418, N-(2,3-Bis((Z)-hexadec-11-enyloxy)propyl)-6,6-bis(2-(2-hydroxyethoxy)ethoxy)-N,N-dimethylhexan-1-aminium chloride] | 3.0 | less efficient |  |  |
| CCCCCCCC/C=C\CCCCCCCCOCC(C[N+](C)(C)CCCCCC(OCCOCCO)OCCOCCO)OCCCCCCCC/C=C\CCCCCCCC (centres unmarked) [JBW411, N-(2,3-bis((Z)-octadec-9-enyloxy)propyl)-6,6-bis(2-(2-hydroxyethoxy)ethoxy)-N,N-dimethylhexan-1-aminium chloride] | 3.5 | less efficient |  |  |
| (K)16RVRRGACRRETAWACG [FMM8] |  |  | as or more efficient |  |
| CCCCCCCC/C=C\CCCCCCCCOCC(C[N+](C)(C)CCCC(OCCOCCO)OCCOCCO)OCCCCCCCC/C=C\CCCCCCCC (centres unmarked) [JBW389, N-(2,3-Bis((Z)-octadec-9-enyloxy)propyl)-4,4-bis(2-(2-hydroxyethoxy)ethoxy)-N,N-dimethylbutan-1-aminium chloride] | 5.5 | the best lipids for transfection |  | transfection efficiency relative to non-cleavable lipid JBW456 (ΣCFTE29o- cells): 2 times; transfection efficiency relative to non-cleavable lipid JBW456 (16HBE14o- cells): 6 times |
| CCCCCCCC/C=C\CCCCCCCCOCC(C[N+](C)(C)CCCCCC(OCCOCCOCCOCCO)OCCOCCOCCOCCO)OCCCCCCCC/C=C\CCCCCCCC (centres unmarked) [JBW412] | 3.0 | less efficient |  |  |
| (K)16RVRRGACRGDCLG [ME27] |  |  | as or more efficient | transfection efficiency, rank among cleavable peptides ME27, ME28, ME29 ([2]; lipofectin:peptide:pCI-Luc 2:4:1, each of Neuro 2A, AJ3.1, bEND.3, 16HBE14o-, ΣCFTE29o-, PVSMCs, p<0.05): significantly the best cleavable peptide; transfection efficiency compared with non-cleavable peptide ME61 ([2]; lipofectin:peptide:pCI-Luc 2:4:1, other cell lines than Neuro 2A, p<0.05): significantly more efficient than ME61; transfection efficiency compared with non-cleavable peptide ME61 (Neuro 2A cells; [5]): as efficient as the non-cleavable control peptide ME61; luciferase expression in tumour, by peptide [3]: 105000 RLU/mg |
| CCCCCCCC/C=C\CCCCCCCCOCC(C[N+](C)(C)CCCCCCCC(OCCOCCO)OCCOCCO)OCCCCCCCC/C=C\CCCCCCCC (centres unmarked) [JBW400, N-(2,3-bis((Z)-octadec-9-enyloxy)propyl)-8,8-bis(2-(2-hydroxyethoxy)ethoxy)-N,N-dimethyloctan-1-aminium chloride] | 4.0 | the best lipids for transfection |  | transfection efficiency relative to non-cleavable lipid JBW456 (bEND.3 cells): 2 times; transfection efficiency relative to non-cleavable lipid JBW456 [4]: 4 times |
| (K)16RVRRGACSERSMNFCG [ME69] |  |  | as or more efficient |  |
| (K)16RVRRGACYGLPHKFCG [PCY] |  |  | as or more efficient |  |
| CCCCCCCC/C=C\CCCCCCCCOCC(C[N+](C)(C)CCCCCC(OCCOCCOC)OCCOCCOC)OCCCCCCCC/C=C\CCCCCCCC (centres unmarked) [JBW413, N-(2,3-Bis((Z)-octadec-9-enyloxy)propyl)-6,6-bis(2-(2-methoxyethoxy)ethoxy)-N,N-dimethylhexan-1-aminium chloride] | 5.0 | the best lipids for transfection |  | transfection efficiency compared with non-cleavable lipid JBW456 (Neuro 2A cells; complexed to peptide E, p>0.05): as efficient as JBW456 |
| (K)16RVRRGACRGDMFGCA [ME68] |  |  | as or more efficient |  |
